Test results as given in patent US11440913B2, “Aminoimidazopyridazines as kinase inhibitors” (BRISTOL-MYERS SQUIBB COMPANY, priority 2017, dated 2022).
Like-named read-outs stand apart in the source and are kept apart here.

How the values were obtained:
[1] = target: His-GST-TVMV-hRIPK1(1-324) (Homo sapiens (Human), UniProt Q13546); experiment: RIPK1 HTRF Binding Assay; settings: HTRF binding, 1 h at rt; read-out: RIPK1 (IC50)
Procedure, shortened: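 HTRF probe-displacement binding: 1 nM His-GST-TVMV-hRIPK1(1-324) (baculovirus construct), 90.6 nM probe, 0.2 nM anti-GST-Tb in 20 mM HEPES, 10 mM MgCl2, 0.015% Brij-35, 4 mM DTT, 0.05 mg/mL BSA. Incubated 1 h at rt; FRET 520/495 nm ratio, inhibition relative to DMSO-only wells.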

[2] = system: MLKL phosphorylation in HT29-L23 human colorectal adenocarcinoma cells; experiment: MLKL Phosphorylation High-Content Assay; format: cell-based; settings: 6 h, necroptosis induced with TNFα, SMAC mimetic and Z-VAD, read-out: pMLKL (IC50)
Procedure, shortened: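 HT29-L23 cells pretreated 30 min at 37 °C with compound (6.25 to 0.106 μM final), then necroptosis induced with TNFα 35 ng/mL, SMAC mimetic 700 nM and Z-VAD 140 nM for 6 h. Fixed cells immunostained for MLKL pS358 and imaged; IC50 and Ymax from 4-parameter logistic fit.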

Chain of His-GST-TVMV-hRIPK1(1-324) (Q13546 1-324): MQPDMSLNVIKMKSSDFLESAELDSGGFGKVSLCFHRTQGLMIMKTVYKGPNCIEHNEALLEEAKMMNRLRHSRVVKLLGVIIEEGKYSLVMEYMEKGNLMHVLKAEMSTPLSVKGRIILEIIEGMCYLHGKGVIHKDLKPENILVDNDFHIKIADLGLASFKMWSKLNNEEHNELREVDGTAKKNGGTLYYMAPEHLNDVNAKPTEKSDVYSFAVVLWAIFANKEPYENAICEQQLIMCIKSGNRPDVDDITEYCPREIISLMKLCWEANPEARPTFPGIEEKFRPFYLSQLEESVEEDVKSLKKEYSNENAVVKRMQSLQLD

Row | Molecule | IC50 [1] | IC50 ([2]; Homo sapiens) | IC50 [2]
1 | CC(=O)Nc1cn2nc(-c3cc(C(=O)NCc4cc(F)cc(F)c4OCC4CC4)cnc3C)ccc2n1 [Example 16, N-{[2-(cyclopropylmethoxy)-3,5-difluorophenyl]methyl}-5-{2-acetamidoimidazo[1,2-b]pyridazin-6-yl}-6-methylpyridine-3-carboxamide] | 4 nM | 5 nM | –
2 | CC(=O)Nc1cn2nc(-c3cc(C(=O)NCc4cc(OCC5CC5)ccc4F)c(C)nc3C)ccc2n1 [Example 326, N-{[5-(cyclopropylmethoxy)-2-fluorophenyl]methyl}-5-{2-acetamidoimidazo[1,2-b]pyridazin-6-yl}-2,6-dimethylpyridine-3-carboxamide] | 6 nM | 10 nM | –
3 | [2H]C([2H])(NC(=O)c1cc(-c2ccc3nc(NC(C)=O)cn3n2)c(C)nc1C)c1cc(C(F)(F)F)ccc1F [Example 75, 5-{2-acetamidoimidazo[1,2-b]pyridazin-6-yl}-N-{[2-fluoro-5-(trifluoromethyl)phenyl](deutero)methyl}-2,6-dimethylpyridine-3-carboxamide] | 11 nM | 32 nM | –
4 | CC(=O)Nc1cn2nc(-c3cnc(C)c(C(=O)NCc4cc(C(F)(F)F)ccn4)c3)ccc2n1 [Example 191, 5-{2-acetamidoimidazo[1,2-b]pyridazin-6-yl}-2-methyl-N-{[4-(trifluoromethyl)pyridin-2-yl]methyl}pyridine-3-carboxamide] | 938 nM | 86 nM | –
5 | Cc1ncc(-c2ccc3nc(NC(=O)CO)cn3n2)cc1C(=O)N[C@@H](C)c1cc(OC(F)(F)F)ccc1F [Example 181, N-[(1S)-1-[2-fluoro-5-(trifluoromethoxy)phenyl]ethyl]-5-[2-(2-hydroxyacetamido)imidazo[1,2-b]pyridazin-6-yl]-2-methylpyridine-3-carboxamide] | 103 nM | 171 nM | –
6 | [2H]C([2H])([2H])Oc1nc(C)c(-c2ccc3nc(NC(C)=O)cn3n2)cc1C(=O)NCc1ccc(F)c(F)c1OCC1CC1 [Example 176, N-{[2-(cyclopropylmethoxy)-3,4-difluorophenyl]methyl}-5-{2-acetamidoimidazo[1,2-b]pyridazin-6-yl}-2-(deutero)methoxy-6-methylpyridine-3-carboxamide] | 10 nM | 12 nM | –
7 | 5-{2- acetamidoimidazo [1,2-b]pyridazin- 6-yl}-N-{[2- fluoro-5- (trifluoromethoxy) phenyl] (Â^2Hâ,,)methyl}-2- methylbenzamide [Example 426] | 1 nM | – | 7 nM
8 | CC(=O)Nc1cn2nc(-c3cnc(Cl)c(C(=O)NCC[C@H](O)c4ccc(Cl)cc4)c3)ccc2n1 [Example 267, 2-chloro-N-[(3S)-3-(4-chlorophenyl)-3-hydroxypropyl]-5-{2-acetamidoimidazo[1,2-b]pyridazin-6-yl}pyridine-3-carboxamide] | 81 nM | 383 nM | –
9 | CC(=O)Nc1cn2nc(-c3cc(C(=O)NCc4cc(F)cc(F)c4O[C@@H]4CCOC4)c(C)nc3C)ccc2n1 [Example 61, N-({3,5-difluoro-2-[(3R)-oxolan-3-yloxy]phenyl}methyl)-5-{2-acetamidoimidazo[1,2-b]pyridazin-6-yl}-2,6-dimethylpyridine-3-carboxamide] | 33 nM | 258 nM | –
10 | CC(=O)Nc1cn2nc(-c3cnc(C)c(C(=O)N4CCCC(C(O)c5ccc(F)cc5)C4)c3)ccc2n1 (single isomer, unassigned) [Example 354, N-[6-(5-{3-[(4-fluorophenyl)(hydroxy)methyl]piperidine-1-carbonyl}-6-methylpyridin-3-yl)imidazo[1,2-b]pyridazin-2-yl]acetamide] | 212 nM | – | 223 nM
11 | COc1nc(C)c(-c2ccc3nc(NC(C)=O)cn3n2)cc1C(=O)NCc1ccc(F)c(F)c1OCC1CC1 [Example 286, N-{[2-(cyclopropylmethoxy)-3,4-difluorophenyl]methyl}-5-{2-acelamidoimidazo[1,2-b]pyridazin-6-yl}-2-methoxy-6-methylpyridine-3-carboxamide] | 9 nM | – | 19 nM
